Data as given in ChEMBL document CHEMBL1157535, “2-Aminobenzophenones as a novel class of bradykinin B1 receptor antagonists” (J Med Chem, 2008).

Columns and labels:
Plasma [1] = assay: Drug level in transgenic rat plasma at 0.12 mg/kg, iv; assay type: ADME, organism-based; parameters: dose 0.12 mg/kg, route intravenous; details: in vivo
Brain [2] = assay: Drug level in transgenic rat brain at 0.12 mg/kg, iv; assay type: ADME, organism-based; parameters: dose 0.12 mg/kg, route intravenous; details: in vivo
Spinal cord [3] = assay: Drug level in transgenic rat spinal cord at 0.12 mg/kg, iv; assay type: ADME, organism-based; parameters: dose 0.12 mg/kg, route intravenous; details: in vivo
Plasma [4] = assay: Drug level in transgenic rat plasma at 1.2 mg/kg, iv; assay type: ADME, organism-based; parameters: dose 1.2 mg/kg, route intravenous; details: in vivo
Brain [5] = assay: Drug level in transgenic rat brain at 1.2 mg/kg, iv; assay type: ADME, organism-based; parameters: dose 1.2 mg/kg, route intravenous; details: in vivo
Spinal cord [6] = assay: Drug level in transgenic rat spinal cord at 1.2 mg/kg, iv; assay type: ADME, organism-based; parameters: dose 1.2 mg/kg, route intravenous; details: in vivo
Plasma [7] = assay: Drug level in transgenic rat plasma at 12 mg/kg, iv; assay type: ADME, organism-based; parameters: dose 12 mg/kg, route intravenous; details: in vivo
Brain [8] = assay: Drug level in transgenic rat brain at 12 mg/kg, iv; assay type: ADME, organism-based; parameters: dose 12 mg/kg, route intravenous; details: in vivo
Spinal cord [9] = assay: Drug level in transgenic rat spinal cord at 12 mg/kg, iv; assay type: ADME, organism-based; parameters: dose 12 mg/kg, route intravenous; details: in vivo
human MDR1 (P-gp) = assay: (§1) Apparent permeability in pig LLC-PK1 cells transfected with human MDR1; assay type: ADME, cell-based, Sus scrofa; details: LLC-PK1
Rattus norvegicus [10] = organism: Rattus norvegicus; details: in vivo
in vivo [11] = details: Sprague-Dawley, rat, po, 10 mg/kg, F
in vivo [12] = details: Sprague-Dawley, rat, iv, 2 mg/kg
in vivo [13] = details: mongrel, dog, iv, 0.25 mg/kg, CL
in vivo [14] = details: mongrel, dog, iv, 0.25 mg/kg, t1/2
in vivo [15] = details: Sprague-Dawley, rat, t1/2
[16] = Metabolic stability in Beagle dog liver microsomes after 30 mins; assay type: ADME, Canis lupus familiaris, Microsome; details: read-out: Stability
[17] = Metabolic stability in human liver microsomes after 30 mins; assay type: ADME, Microsome; details: read-out: Stability
[18] = Metabolic stability in monkey liver microsomes after 30 mins; assay type: ADME, Macaca mulatta, Microsome; details: rhesus monkey, read-out: Stability
[19] = Metabolic stability in Sprague-Dawley rat liver microsomes after 30 mins; assay type: ADME, Microsome; details: read-out: Stability
LLC-PK1 = assay: as §1; assay type: ADME, cell-based, Sus scrofa; details: llc-pk1
Rattus norvegicus [20] = organism: Rattus norvegicus; details: in vivo, po, 10 mg/kg
Canis familiaris = organism: Canis familiaris; details: dog, in vivo, iv, 0.25 mg/kg

SMILES | Papp (human MDR1 (P-gp)) [×10⁻⁶ cm/s] | t1/2 (Rattus norvegicus [10]) [h] | bioavailability (in vivo [11]) [%] | clearance (in vivo [12]) [mL/min/kg] | clearance (in vivo [13]) [mL/min/kg] | half-life (in vivo [14]) [h] | half-life (in vivo [15]) [h] | t1/2 (Canis familiaris) [h] | also measured
O=C(Nc1ccc(S(=O)(=O)Nc2ccccc2C(=O)c2ccccc2)cc1)OCC1CCCO1 (stereo not drawn) | 26 | 9.7 | 3 | 43 | 17 | 1.9 | – | – | concentration (Plasma [1]): 80 nM; concentration (Brain [2]): 70 nM; concentration (Spinal cord [3]): 97 nM; concentration (Plasma [4]): 995 nM; concentration (Brain [5]): 438 nM; concentration (Spinal cord [6]): 597 nM; concentration (Plasma [7]): 13200 nM; concentration (Brain [8]): 5840 nM; concentration (Spinal cord [9]): 9430 nM
CC(=O)Nc1ccc(S(=O)(=O)Nc2ccccc2C(=O)c2ccccn2)cc1 | – | – | 11 | 24 | 1.2 | 1.2 | 1.2 | – | –
CC(=O)Nc1ccc(S(=O)(=O)Nc2ccccc2C(=O)c2ccccc2)cc1 | 27 | 0.3 | 3 | 26 | 7.5 | 0.5 | – | – | remaining at 0.5 h [16]: < 10%; remaining at 0.5 h [17]: < 10%; remaining at 0.5 h [18]: < 10%; remaining at 0.5 h [19]: < 10%
O=C(NCCCN1CCCCC1)Nc1ccc(S(=O)(=O)Nc2ccccc2C(=O)c2ccccc2)cc1 | 34 | 14 | 41 | 29 | 17 | 1.5 | – | – | –
O=C(Nc1ccc(S(=O)(=O)Nc2ccccc2C(=O)c2ccccn2)cc1)OCC1CCCO1 (racemic) | – | 1.4 | – | – | – | – | – | 1.4 | Papp (LLC-PK1): 31 ×10⁻⁶ cm/s; F (Rattus norvegicus [20]): 17%
O=C(Nc1ccc(S(=O)(=O)Nc2ccccc2C(=O)c2ccccn2)cc1)OCC1CCCO1 (stereo in doubt; 28) | – | – | – | – | – | – | – | 2.6 | –
O=C(Nc1ccc(S(=O)(=O)Nc2ccccc2C(=O)c2ccccn2)cc1)OCC1CCCO1 (stereo in doubt; 29) | 33 | – | – | 40 | 2.9 | 2.2 | 1.7 | – | F (Rattus norvegicus [20]): 3%
O=C(Nc1ccc(S(=O)(=O)Nc2ccccc2C(=O)c2ccc(F)cn2)cc1)OCC1CCCO1 (stereo in doubt; 30) | 26 | – | – | – | – | – | – | 1.8 | –
O=C(Nc1ccc(S(=O)(=O)Nc2ccccc2C(=O)c2ccc(F)cn2)cc1)OCC1CCCO1 (stereo in doubt; 32) | – | – | < 1 | 26 | – | 2.8 | 1.1 | – | –
